Tests used:
[1] = system: B16.F1 and TRP-2 pulsed EL4; test: CTL cytotoxicity against TRP-2 presenting cells after immunization; assay type: in vivo, mouse; settings: free versus liposomal
Method: In another set of experiments antigen-specificity of cytotoxic T lymphocytes after liposomal vaccination (FIG. 20) was analyzed. Mice were immunized with AVE3-encapsulated or free TRP-2 and CpG-PTO as described above. Cells prepared from lymph nodes were then tested for cytotoxicity using as targets the mouse melanoma cell line B16.F1 know to present TRP-2 in the context of H-2K^b, TRP-2 pulsed EL4 cells, OVA peptide-pulsed EL4 cells, unpulsed EL4 cells, and YAC-1 cells to exclude a potential NK cell activity. […] As described above 10-fold higher amounts of free TRP-2 and 4-fold higher amounts of CpG-PTO were necessary to induce the same CTL response.

[2] = system: TRP-2-specific T cells (splenocytes); test: Avidity of TRP-2-specific T cells (splenocyte proliferation, ATPlite); assay type: in vivo, BL6 mice; settings: after two immunizations
Method: FIG. 22: Vaccination with liposomal-encapsulated TRP-2 plus CpG-PTO. The vaccination with liposomal-encapsulated TRP-2 plus CpG-PTO generates high avidity T cells. BL6 mice were vaccinated with 10 μg liposomal or 100 μg free TRP-2 plus 5 nmol free CpG ODN at weekly intervals up to three times. Lymphocytes were isolated from spleen (A) and lymph node (LN) (B) one week after last immunization and an IFNγ capture assay was performed as described. C, Avidity of T cells after vaccination with liposomal and free TRP-2 plus CpG ODN. One week after the last immunization splenocytes were nylon-wool enriched and cultured for 5 days in vitro in the presence of high dose (10^−6 mol/l) or low dose TRP-2 (10^−9 mol/l) or control peptide […] (10^−6 mol/l) with low dose IL2 (30 U/ml). Proliferation was estimated by a luminescence assay-based detection system measuring ATP content. Proliferation of splenocytes in the presence of anti-TCR plus anti-CD28 mAb was set to 100%. Representative data from one of two similar experiments are shown.
Finally, the avidity of TRP-2-specific CTLs in animals immunized with liposomal or free TRP-2, respectively (FIG. 21) was compared. […] In parallel to the IFNγ secretion assay nylon-wool column enriched splenocytes were cultured with high (10^−6 mol/l) and low dose TRP-2 (10^−9 mol/l), for 5 days and cell proliferation was determined using the ATPlite™-M system. […]

murine B cells = test: Induction of B cell proliferation (CFSE); assay type: cell-based; settings: ODN 5 to 200 nmol/l, free or AVE3-encapsulated
Text: FIG. 12: Comparison of the biological activity of CpG-PTO and CpG-PDO. Cells were labeled with CFSE before being stimulated for 48 hrs with 0 to 0.2 μmol/l end concentration of ODNs in saline or liposomal. (black diamonds) CpG-PTO in saline; (grey diamonds) CpG-PDO in saline; (black squares) liposomal CpG-PTO; (grey squares) liposomal CpG-PDO. Dead cells were excluded by propidium iodide staining.
CpG oligonucleotides have been described to induce B cell proliferation. The effects of free or encapsulated CpG phosphorothioate oligonucleotides (CpG-PTO) (see example 6) on proliferation of murine B cells (FIG. 11A) were compared. […] Induction of B cell proliferation was dependent on the concentration of applied ODN with strong B cell proliferation observed between 50 to 200 nmol/l encapsulated ODN. Similar values were obtained for CpG-ODN encapsulated at different concentrations (between 4.6 μg/μmol lipid to 93.5 μg/μmol lipid). No induction of B cell proliferation was observed using free or encapsulated non-CpG-ODN (FIG. 11B).
CpG phosphorothioate (CpG-PTO) or CpG phosphodiester (CpG-PDO) oligonucleotides (see example 6) were analyzed for the induction of B cell proliferation in free or AVE3-encapsulated form using ODN concentrations between 5 to 200 nmol/l. […]

Substance	higher amounts necessary to induce the same CTL response [1] [fold]	avidity of T cells, liposomal vs. free TRP-2 [2]	induction of B cell proliferation (murine B cells)
free TRP-2: antigenic peptide TRP-2 (SVYDFFVWL), not encapsulated	10	more polyclonal response of splenocytes consisting of low and high avidity T cells	
non-CpG-ODN: non-CpG-1982-PTO, 5′-TCCAGGACTTCTCTCAGGT-3′, free (DNA, all phosphorothioate, methylation of C not given here)			No induction

— patent US20070148220A1, “Liposomes and liposomal compositions for vaccination and drug delivery” (priority 2003, published 2007)
